According to PubChem BioAssay AID1963865 (Molecular Pharmacology Branch, DTP, NCI, 2024):

System: KRAS PDC multicell spheroid viability
Assay: Anticancer human tumor 825966-067-R-J1-PDC patient-derived colon carcinoma cell line growth inhibition [KRAS2]
Settings: for IC50: curve of first compound; for viability, T/C: stronger effect = lower value
In short: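 Combination screen of spheroid viability in tumor-cell co-cultures with endothelial (HUVEC) and mesenchymal stem cell stroma. Each agent was tested in half-log dilutions, topping at clinical Cmax or at 10 microM without a known Cmax.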

[1] = second compound 0.1 µM, first compound 0.00316 µM
[2] = second compound 0.1 µM, first compound 0.01 µM
[3] = second compound 0.1 µM, first compound 0.0316 µM
[4] = second compound 0.1 µM, first compound 0.1 µM
[5] = second compound 0.1 µM, first compound 0.316 µM
[6] = second compound 0.1 µM, first compound 1 µM
[7] = second compound 0.316 µM, first compound 0.00316 µM
[8] = second compound 0.316 µM, first compound 0.01 µM
[9] = second compound 0.316 µM, first compound 0.0316 µM
[10] = second compound 0.316 µM, first compound 0.1 µM
[11] = second compound 0.316 µM, first compound 0.316 µM
[12] = second compound 0.316 µM, first compound 1 µM
[13] = second compound 1 µM, first compound 0.00316 µM
[14] = second compound 1 µM, first compound 0.01 µM
[15] = second compound 1 µM, first compound 0.0316 µM
[16] = second compound 1 µM, first compound 0.1 µM
[17] = second compound 1 µM, first compound 0.316 µM
[18] = second compound 1 µM, first compound 1 µM
[19] = second compound 3.16 µM, first compound 0.00316 µM
[20] = second compound 3.16 µM, first compound 0.01 µM
[21] = second compound 3.16 µM, first compound 0.0316 µM
[22] = second compound 3.16 µM, first compound 0.1 µM
[23] = second compound 3.16 µM, first compound 0.316 µM
[24] = second compound 3.16 µM, first compound 1 µM
[25] = second compound 10 µM, first compound 0.00316 µM
[26] = second compound 10 µM, first compound 0.01 µM
[27] = second compound 10 µM, first compound 0.0316 µM
[28] = second compound 10 µM, first compound 0.1 µM
[29] = second compound 10 µM, first compound 0.316 µM
[30] = second compound 10 µM, first compound 1 µM
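Further: spheroids exposed to compounds for 7 days.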
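Wherever viability, T/C is given: 100% = DMSO vehicle control viability.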

CCN1CCN(Cc2ccc(Nc3ncc(F)c(-c4cc(F)c5nc(C)n(C(C)C)c5c4)n3)nc2)CC1 + COc1cc2nc(C)nc(NC(C)c3cc(N)cc(C(F)(F)F)c3)c2cc1OC1CCOC1
IC50 (second compound 0.1 µM): > 1000 nM | IC50 (second compound 0.316 µM): > 1000 nM | IC50 (second compound 1 µM): > 1000 nM | IC50 (second compound 3.16 µM): > 1000 nM | IC50 (second compound 10 µM): 31.9 nM | viability, T/C [1]: 99.6% | viability, T/C [2]: 111% | viability, T/C [3]: 121% | viability, T/C [4]: 170% | viability, T/C [5]: 129% | viability, T/C [6]: 183% | viability, T/C [7]: 99.3% | viability, T/C [8]: 109% | viability, T/C [9]: 111% | viability, T/C [10]: 132% | viability, T/C [11]: 172% | viability, T/C [12]: 161% | viability, T/C [13]: 103% | viability, T/C [14]: 109% | viability, T/C [15]: 104% | viability, T/C [16]: 152% | viability, T/C [17]: 179% | viability, T/C [18]: 92.7% | viability, T/C [19]: 118% | viability, T/C [20]: 142% | viability, T/C [21]: 161% | viability, T/C [22]: 158% | viability, T/C [23]: 171% | viability, T/C [24]: 50.1% | viability, T/C [25]: 82.9% | viability, T/C [26]: 87.8% | viability, T/C [27]: 38.3% | viability, T/C [28]: 31.5% | viability, T/C [29]: 5.53% | viability, T/C [30]: 1.46%

CCNC(=O)CC1N=C(c2ccc(Cl)cc2)c2cc(OC)ccc2-n2c(C)nnc21 (stereo not given) + COc1cc2nc(C)nc(NC(C)c3cc(N)cc(C(F)(F)F)c3)c2cc1OC1CCOC1
IC50 (second compound 0.1 µM): > 10000 nM | IC50 (second compound 0.316 µM): > 10000 nM | IC50 (second compound 1 µM): > 10000 nM | IC50 (second compound 3.16 µM): 2460 nM | IC50 (second compound 10 µM): 55.6 nM | viability, T/C [3]: 97.2% | viability, T/C [4]: 119% | viability, T/C [5]: 104% | viability, T/C [6]: 80.3% | viability, T/C (second compound 0.1 µM, first compound 3.16 µM): 73.4% | viability, T/C (second compound 0.1 µM, first compound 10 µM): 69.1% | viability, T/C [9]: 97.6% | viability, T/C [10]: 111% | viability, T/C [11]: 98.2% | viability, T/C [12]: 75.2% | viability, T/C (second compound 0.316 µM, first compound 3.16 µM): 59.9% | viability, T/C (second compound 0.316 µM, first compound 10 µM): 69.1% | viability, T/C [15]: 101% | viability, T/C [16]: 109% | viability, T/C [17]: 118% | viability, T/C [18]: 77.1% | viability, T/C (second compound 1 µM, first compound 3.16 µM): 98.8% | viability, T/C (second compound 1 µM, first compound 10 µM): 70.8% | viability, T/C [21]: 131% | viability, T/C [22]: 97.6% | viability, T/C [23]: 114% | viability, T/C [24]: 71.7% | viability, T/C (second compound 3.16 µM, first compound 3.16 µM): 41% | viability, T/C (second compound 3.16 µM, first compound 10 µM): 47% | viability, T/C [27]: 77.8% | viability, T/C [28]: 19% | viability, T/C [29]: 17.4% | viability, T/C [30]: 8.42% | viability, T/C (second compound 10 µM, first compound 3.16 µM): 13.1% | viability, T/C (second compound 10 µM, first compound 10 µM): 1.45%

Cn1ncnc1[C@H]1c2n[nH]c(=O)c3cc(F)cc(c23)N[C@@H]1c1ccc(F)cc1 + COc1cc2nc(C)nc(NC(C)c3cc(N)cc(C(F)(F)F)c3)c2cc1OC1CCOC1
IC50 (second compound 0.1 µM): > 100 nM | IC50 (second compound 0.316 µM): > 100 nM | IC50 (second compound 1 µM): > 100 nM | IC50 (second compound 3.16 µM): > 100 nM | IC50 (second compound 10 µM): < 0.316 nM | viability, T/C (second compound 0.1 µM, first compound 0.000316 µM): 92.2% | viability, T/C (second compound 0.1 µM, first compound 0.001 µM): 89.3% | viability, T/C [1]: 90.6% | viability, T/C [2]: 76.7% | viability, T/C [3]: 83.9% | viability, T/C [4]: 70.9% | viability, T/C (second compound 0.316 µM, first compound 0.000316 µM): 86.3% | viability, T/C (second compound 0.316 µM, first compound 0.001 µM): 94.4% | viability, T/C [7]: 82.4% | viability, T/C [8]: 101% | viability, T/C [9]: 65.3% | viability, T/C [10]: 64.4% | viability, T/C (second compound 1 µM, first compound 0.000316 µM): 86.3% | viability, T/C (second compound 1 µM, first compound 0.001 µM): 99.4% | viability, T/C [13]: 107% | viability, T/C [14]: 79.2% | viability, T/C [15]: 84.2% | viability, T/C [16]: 92.1% | viability, T/C (second compound 3.16 µM, first compound 0.000316 µM): 116% | viability, T/C (second compound 3.16 µM, first compound 0.001 µM): 103% | viability, T/C [19]: 114% | viability, T/C [20]: 94.7% | viability, T/C [21]: 105% | viability, T/C [22]: 89.3% | viability, T/C (second compound 10 µM, first compound 0.000316 µM): 11.3% | viability, T/C (second compound 10 µM, first compound 0.001 µM): 10.4% | viability, T/C [25]: 17.1% | viability, T/C [26]: 21.1% | viability, T/C [27]: 11.8% | viability, T/C [28]: 7.86%
